Like-named read-outs stand apart in the source and are kept apart here. Values belong to the molecule of their own block, whether it stands above or below them.
Assays:
[1] = in vivo; cited from earlier work
[2] = Combined mouse endotoxin-stimulated TNFα release and locomotor activity assay (spontaneous mobility); assay type: in vivo; details: female, Balb/c, in vivo, ip, locomotor activity, read-out: ED50 (effective dose that decreases spontaneous mobility 50% of control)
Procedure: (§1) The purpose of this study was to determine the efficacy of PDE4 inhibitors in vivo in an LPS mouse model together with a determination with respect to central nervous system (CNS) side-effects manifested by a decrease in spontaneous mobility.
(§2) The test animals were female Balb/c mice, having an average weight of about 20 g. The PDE4 inhibitors, formulated in 30% Cremophor® EL, were administered via intraperitoneal (i.p.) injections at doses of 0.1, 1.0, 10.0, and 100 mg/kg. Individual dose volumes (about 150 μL) were adjusted based on the body weights measured. One hour later, 5 mg/kg LPS in a final volume of 200 μL was injected via the tail vein to each animal. Ninety minutes following the LPS treatment, the animals were bled and serum samples were collected before being stored at −70° C. until assayed.
(§3) Movement of the X-Y plane, or rearina up on the hind legs, was quantified by counting the number of “light-beam” crosses per unit of time. A decrease in the number of activity events is directly proportional to the mobility or immobilization of the animal. The quantitative scoring correlated well with the subjective measurements described above.
(§4) The following table summarizes the locomotor activity assay (mobility, % activity) results obtained by the above-described method:
(§5) effective dose, in mg/kg, that decreases spontaneous mobility 50% of control.

[3] = test system: human peripheral blood lymphocytes (PBL); experiment: Lipopolysaccharide-stimulated TNFα release from human peripheral blood lymphocytes; assay type: cell-based; details: LPS-stimulated TNFα release from human PBL
Procedure: The compounds of structural formula (II) also were tested for an ability to reduce TNFα secretion in human peripheral blood lymphocytes. The ability to reduce TNFα secretion is related to the EC50 values (i.e., the effective concentration of the compound capable of inhibiting 50% of the total TNFα).
To assess the ability of a compound to reduce TNFα secretion in human peripheral blood lymphocytes (PBL), the following tests were performed.
Heparinized blood (approximately 30 mL) drawn from human volunteers was mixed 1:1 with Dulbecco's modified phosphate-buffered saline. This mixture was mixed 1:1 with HISTOPAQUE® and centrifuged at 1,500 rpm at room temperature without braking in the swinging bucket of a Beckman model TJ6 centrifuge. Erythrocytes were centrifuged to the bottom of the tubes, and serum remained at the surface of the tubes. A layer containing lymphocytes sedimented between the serum and HISTOPAQUE® layers, and was removed by aspiration to a fresh tube. The cells were quantified and adjusted to 3×10^6 cells/mL and a 100 μL aliquot is placed into the wells of a 96 well plate. Test compounds and RPMI media (Gibco/BRL Life Sciences) are added to each of the wells 15 minutes prior to addition of bacterial LPS ([…]). The mixture was allowed to incubate for 20 hours at 37° C. in a humidified chamber. The cells then were separated by centrifuging at 800 rpm for 5 minutes at room temperature. An aliquot of 180 μL of supernatant was transferred to a new plate for determination of TNFα concentration. TNFα protein in the cell supernatant fluids was measured using a commercially available enzyme-linked immunosorbent assay (ELISA) (CYTOSCREEN® Immunoassay Kit from Biosource International).
The cell-based assay provided the following results for various pyrrolidine compounds of the present invention. The EC50 values (i.e., effective concentration of the compound capable of inhibiting 50% of the total TNFα) illustrate the ability of the present compounds to inhibit LPS-stimulated TNFα release from human PBL.

recombinant human PDE4 [4] = test system: T1, recombinant human PDE4; experiment: PDE4 inhibition, recombinant human PDE4 (charcoal separation PDE assay); assay type: biochemical
T1 construct: PDE4 IC50; other: human recombinant PDE4
Procedure: The compounds of structural formula (II) were tested for an ability to inhibit PDE4. The ability of a compound to inhibit PDE4 activity is related to the IC50 value for the compound, i.e., the concentration of inhibitor required for 50% inhibition of enzyme activity. The IC50 value for compounds of structural formula (II) were determined using recombinant human PDE4.
Phosphodiesterase activity of the preparations was determined as follows. PDE assays utilizing a charcoal separation technique were performed essentially as described in Loughney et al. (1996). In this assay, PDE activity converts [32P]cAMP or [32P]cGMP to the corresponding [32P]5′-AMP or [32P]5′-GMP in proportion to the amount of PDE activity present. The [32P]5′-AMP or [32P]5′-GMP then was quantitatively converted to free [32P]phosphate and unlabeled adenosine or guanosine by the action of snake venom 5′-nucleotidase. […] The assay was performed at 30° C. in a 100 μL reaction mixture containing (final concentrations) 40 mM Tris HCl (pH 8.0), 1 μM ZnSO4, 5 mM MgCl2, and 0.1 mg/mL bovine serum albumin (BSA). Alternatively, in assays assessing PDEl-specific activity, incubation mixtures further incorporated the use of 0.1 mM CaCl2 and 10 μg/mL calmodulin. PDE enzyme was present in quantities that yield <30% total hydrolysis of substrate (linear assay conditions). The assay was initiated by addition of substrate ([…] [32P]cAMP or cGMP), and the mixture was incubated for 12 minutes. Seventy-five (75) μg of Crotalus atrox venom then was added, and the incubation was continued for 3 minutes (15 minutes total). The reaction was stopped by addition of 200 μL of activated charcoal (25 mg/mL suspension in 0.1 M NaH2PO4, pH 4). After centrifugation (750×g for 3 minutes) to sediment the charcoal, a sample of the supernatant was taken for radioactivity determination in a scintillation counter and the PDE activity was calculated.
The table below illustrates the ability of compounds of formula (II) to inhibit PDE4 activity and TNFα release in vitro. In the following table, the IC50 values were determined against human recombinant PDE4.

recombinant human PDE4 [5] = details: prior art value; read-out: IC50 with respect to inhibiting recombinant human PDE4 (reported); cited from earlier work
female Balb/c mice = experiment: Combined mouse endotoxin-stimulated TNFα release and locomotor activity assay (spontaneous mobility); assay type: in vivo; details: i.p., 50 mg/kg dose, locomotor activity
Procedure: as §1, §2, §3, §4, §5

SMILES: COc1ccc([C@@H]2CNC(=O)C2)cc1OC1CCCC1 [R-rolipram]
- Emetic potency relative to the (+)-enantiomer [1]: about ten-fold more emetic

SMILES: COC(=O)N1CC(c2ccc(OC)c(OC3CCCC3)c2)[C@@](C)(/C(C)=N\O)C1 (some centres unmarked) [Example 2b]
- ED50 [2]: 7 mg/kg
- EC50 ([3]; Homo sapiens, Lymphocyte): 23 nM
- IC50 (recombinant human PDE4 [4]): 2.2 nM

- EC50 ([3]; Homo sapiens, Lymphocyte): 551 nM
- IC50 (recombinant human PDE4 [4]): 189 nM
SMILES: COC(=O)N1CC(c2ccc(OC)c(OC3Cc4ccccc4C3)c2)[C@](C)(/C(C)=N\O)C1 (mixture of isomers) [Example 3]

SMILES: COC(=O)N1CC(c2ccc(OC)c(OC3CCCC3)c2)C(C)(C(C)=O)C1 (centres unmarked) [formula (I)]
- IC50 (recombinant human PDE4 [5]): ~2 nM

SMILES: CN/N=C(\C)C1(C)CN(C(=O)OC)CC1c1ccc(OC)c(OC2CCCC2)c1 (single isomer, unassigned) [Example 1a]
- Mobility (% activity at 50 mg/kg dose) (female Balb/c mice): 64% activity
- EC50 [3]: 76 nM
- IC50 (recombinant human PDE4 [4]): 116 nM

SMILES: COC(=O)N1CC(c2ccc(OC)c(OC3CCCC3)c2)[C@](C)(/C(C)=N\O)C1 (some centres unmarked) [Example 2a]
- ED50 [2]: > 50 mg/kg
- EC50 ([3]; Homo sapiens, Lymphocyte): 281 nM
- IC50 (recombinant human PDE4 [4]): 49 nM

SMILES: COc1ccc(C2CNC(=O)C2)cc1OC1CCCC1 (centres unmarked) [Rolipram]
- IC50 (recombinant human PDE4 [5]): ~200 nM

SMILES: CN/N=C(\C)C1(C)CN(C(=O)OC)CC1c1ccc(OC)c(OC2CCCC2)c1 (single isomer, unassigned) [Example 1b]
- Mobility (% activity at 50 mg/kg dose) (female Balb/c mice): 6% activity
- EC50 [3]: 2.2 nM
- IC50 (recombinant human PDE4 [4]): 2.2 nM
